# Legend:
# NCKX5 = assay: Western blot of NCKX5 protein after siRNA knockdown in human melanocytes; format: cell-based; conditions: 5 days after siRNA mediated knockdown; anti C-terminus pAb; FIG. 28
# Description: FIG. 28—Western blot analysis of NCK5 after knockdown. Using Western blotting we have investigated NCKX5 protein expression 5 days after siRNA mediated knockdown (all 5 siRNA duplexes and controls were tested). Western blot was also used to evaluate the expression and processing (maturation) of tyrosinase (tyr) in the same samples. SDS-PAGE (10% PA for NCKX5, 4-12% for tyr, 5 μg protein/lane). A) Western blot for NCKX5: Detection via rabbit anti-NCKX5 pAb (anti C-terminus peptide). B) Western blot for tyr, via goat pAb (Santa Cruz). 1=No treatment, 2=scrambled siRNA control, 3-7=siRNA's 185, 260, 301, 492, 1110. […] These bands are absent in the samples where SLC24A5-specific duplexes were used (lanes 3-7). It is possible that the doublet represents the presence of alternate SLC24A5 splice variants.
# Cultured Cells (trypsinised off of 6-well culture plates) were lysed on ice for 20 minutes in 1.5 ml eppendorfs using 100 μl per sample of 1% triton X-100 in dPBS containing protease inhibitor cocktail (Sigma-Aldrich, Poole, UK). Cell extracts were centrifuged (10 minutes at 13000 g) to separate melanin and cell debris from the solubilised protein. The protein concentration of each supernatant fraction was determined by BCA assay as described in A).
# 20 μg protein (as determined by BCA assay) was reconstituted into 20 μl of 1×LDS loading buffer (Invitrogen Ltd, Paisley, UK) containing 1× reducing agent (Invitrogen Ltd, Paisley, UK), heated to 40° C. for 30 minutes and loaded onto 10% Novex bis-tris acrylamide gels with 1×MOPS running buffer (Invitrogen Ltd, Paisley, UK). Kaleidoscope molecular weight markers (Bio-Rad Laboratories Ltd, Hemel Hempstead, UK) were run alongside samples for size determinations. Protein was transferred onto PVDF membrane by electrophoresis transfer, using a Bio-Rad mini-cell II trans-blotter and 1×Tris-Glycine transfer buffer (Invitrogen Ltd, Paisley, UK)+15% v/v methanol (100V for 1 hour).
# Membranes containing transferred protein were “blocked” using 2% w/v skimmed milk protein (SMP) in PBS+0.05% tween20 (PBST) for 1 hour with gentle agitation. Peptide affinity purified rabbit polyclonal antibody (raised using a peptide equivalent to the C-terminus of NCKX5—GNNKIRGCGG) was diluted to 0.5 μg/ml using 2% SMP in PBST. The diluted antibody was incubated with the membrane for 2 hours at room temperature. The membrane was then rinsed with PBST (4×5 minutes washes). Peroxidase conjugated anti-rabbit IgG (Jackson ImmunoResearch Laboratories Inc. PA, USA) was diluted 1/4000 using 2% SMP in PBST and was incubated with the membranes for 1 hour. Finally, membranes were washed using 6×5 minute rinses with PBST. […]
# [1] = tested on: lightly pigmented human melanocytes; assay: Quantitative assessment of melanogenesis (melanin content) after siRNA knockdown; format: cell-based; conditions: replicated x3, FIG. 27
# Description: FIG. 27—Quantitative assessment of melanogenesis. A decrease in post-treatment melanin content is noted for duplex (492) in lightly pigmented human melanocytes (replicated ×3).
# To each pellet of melanin+cell debris obtained in section 2), 0.5 ml of diethyl ether:ethanol (1:1 ratio) was added. Eppendorfs were vortexed vigorously for 30 seconds and centrifuged at 13000 g for 5 minutes. The ether layer was carefully removed to waste and a further 0.5 ml was added. The tubes were agitated and centrifuged as before. The liquid phase was again removed and the melanin pellets were allowed to air dry at room temperature for 10 minutes. Melanin pellets were solubilised by the addition of 200 μl of 1M NaOH+10% DMSO and incubation (with occasional agitation) at 50° C. for 1 hour. 80 μl aliquots of each sample were transferred to a 96-well microtitre plate in duplicate. OD^450 of each sample was determined and the melanin content of each fraction was calculated from a synthetic melanin standard curve, prepared as described above. In treatment comparisons, results were expressed as μg melanin per μg protein.
# Primary human melanocytes isolated from lightly pigmented or darkly pigmented neonatal foreskin were obtained from Cascade Biologics. Melanocyte Growth Medium (MGM) refers to Medium 254 (Cascade Biologics) supplemented with HMGS (Cascade Biologics). […]
Substance,NCKX5 Western blot bands of approx. 42 and 44 kDa (NCKX5),post-treatment melanin content [1]
260 (sense GAGCGCAGAGATGGAGGCATCATAA; antisense CTCGCGTCTCTACCTCCGTAGTATT; chemistry not given here; one strand is listed 3' to 5') [compound 260],absent,–
185 (sense AGGGCCACAGGAAATAGCACCCAAT; antisense TCCCGGTGTCCTTTATCGTGGGTTA; chemistry not given here; one strand is listed 3' to 5') [compound 185],absent,–
301 (sense CGTTTACATGTTCATGGCCATATCT; antisense GCAAATGTACAAGTACCGGTATAGA; chemistry not given here; one strand is listed 3' to 5') [compound 301],absent,–
492 (sense GCACCATCCTTGGATCTGCAATTTA; antisense CGTGGTAGGAACCTAGACGTTAAAT; chemistry not given here; one strand is listed 3' to 5') [compound 492],absent,decrease
